Laboratory results published in patent US20060276438A1 (priority 2004, published 2006).
≈ marks a conversion by molar mass, not a printed value. Where “and” joins values, the source holds several entries; their conditions need not be identical. Equal values may be shown once. Read-outs that look alike come from different tables or passages of the source. Marks after values point to notes of the source that are not given here.

What was measured:
[1] = tested on: Vero cells
[2] = tested on: Madin-Darby canine kidney cells (MDCK); conditions: at concentrations of 1-100 μg/ml
[3] = tested on: Influenza B (Hong Kong/330/02); test: Antiviral assay in MDCK cells (CPE inhibition visual / Neutral Red), influenza B, initial and confirmatory test; type: cell-based, influenza type B virus; conditions: for antiviral activity rating in words: influenza virus B
Experimental: An antiviral test assay for the determination of the efficacy of DON was carried out according to the methods described in Furata et al., Antimicrobial Agents and Chemotherapy, 46(4):977-981 (2002). The vehicle used was Eagle's modification of minimum essential medium (EMEM). Two tests were carried out with different strains of influenza type A viruses and one test, followed by a confirmatory test, was carried out with an influenza type B virus strain. The cell type in all tests was Madin-Darby canine kidney cells (MDCK), and in all tests drug units and control units are expressed as micrograms/milliliter (μg/ml). […] The Safety Index (SI) of the drug could then be calculated according to the formula: SI═IC50/EC50. […] The Safety Index (SI) of the drug could then be calculated according to the formula: SI═IC50/ EC50, or SI═IC50/ EC90. All drug tests were carried out with stationary cells.

[4] = tested on: Madin-Darby canine kidney cells (MDCK); test: cells; conditions: Canis lupus familiaris
[5] = tested on: Influenza A (H1N1; New Caledonia/20/99); test: microbe, parasite or virus in culture; type: cell-based, influenza type A virus; conditions: for EC50: Influenza A virus, H1N1, MDCK, MDCK cells, H1N1 New Caledonia/20/99; for antiviral activity rating in words: influenza virus A (H1N1)
[6] = tested on: Influenza A (H3N2; Panama/2007/99); test: microbe, parasite or virus in culture; type: cell-based, influenza type A virus; conditions: for EC50: MDCK cells, H3N2 Panama/2007/99; for SI (Safety Index = IC50/EC50): H3N2; for antiviral activity rating in words: influenza virus A (H3N2)
[7] = Influenza B virus, MDCK, CPE inhibition (visual), MDCK cells, influenza B Hong Kong/330/02, initial test, read-out: EC50
[8] = Influenza B virus, MDCK, Neutral Red assay, MDCK cells, influenza B Hong Kong/330/02, initial test, read-out: EC50
[9] = Influenza B virus, MDCK, confirmatory test, visual method, MDCK cells, influenza B Hong Kong/330/02, read-out: EC50
[10] = based on EC50 by CPE inhibition (visual), influenza B initial test
[11] = based on EC50 by Neutral Red, influenza B initial test
[12] = read-out: IC50 (concentration toxic for 50% of MDCK host cells), in the influenza A H1N1 test, stationary cells
[13] = read-out: IC50 (concentration toxic for 50% of MDCK host cells), in the influenza A H3N2 test, stationary cells
[14] = read-out: IC50 (concentration toxic for 50% of MDCK host cells), in the influenza B confirmatory test, stationary cells
[15] = read-out: IC50 (concentration toxic for 50% of MDCK host cells), in the influenza B initial test, stationary cells
[16] = based on EC50 by CPE inhibition (visual), H1N1
[17] = based on EC50 by Neutral Red, H1N1
[18] = Influenza A virus, H3N2, MDCK, CPE inhibition (visual), read-out: EC50
[19] = Influenza A virus, H3N2, MDCK, Neutral Red assay, read-out: EC50
[20] = based on EC50 by CPE inhibition (visual)

Row | SMILES | EC50 [3, 7] | EC50 [3, 8] | EC50 [3, 9] | SI (Safety Index = IC50/EC50) [3, 10] | SI (Safety Index = IC50/EC50) [3, 11] | SI (Safety Index = IC50/EC50) ([3]; influenza B confirmatory test) | SI = IC50/EC90 ([3]; influenza B confirmatory test) | antiviral activity rating in words [3] | IC50 [4, 12] | IC50 [4, 13] | IC50 [4, 14] | IC50 [4, 15] | EC50 ([5]; CPE inhibition (visual)) | EC50 ([5]; Neutral Red assay) | SI (Safety Index = IC50/EC50) [5, 16] | SI (Safety Index = IC50/EC50) [5, 17] | antiviral activity rating in words [5] | EC50 [6, 18] | EC50 [6, 19] | SI (Safety Index = IC50/EC50) [6, 20] | other results
1 | [N-]=[N+]=CC(=O)CC[C@H](N)C(=O)O [DON, 6-diazo-5-oxo-L-norleucine] | 0.032 µg/mL (≈ 0.187 µM) | 0.14 µg/mL (≈ 0.818 µM) | 0.18 µg/mL (≈ 1.05 µM) | 3,125 | 714 | >555 | 40^b | active to highly active | > 100 µg/mL | ≥ 100 µg/mL | > 100 µg/mL | ≥ 100 µg/mL | 0.32 µg/mL (≈ 1.87 µM) | 0.21 µg/mL (≈ 1.23 µM) | 312 | 476 | active to highly active | 2.3 µg/mL (≈ 13.4 µM) | 1.8 µg/mL (≈ 10.5 µM) | 43 | toxicity by neutral red assay in Vero cells compared with MDCK cells [1]: much greater than in MDCK cells; toxicity in the neutral red assay [2]: 25-50%; EC90 ([3]; Influenza B virus, MDCK): 2.5 µg/mL (≈ 14.6 µM); SI (Safety Index = IC50/EC50) ([6]; based on EC50 by Neutral Red): 56; antiviral activity rating in words [6]: active to highly active
2 | N[C@H](C(=O)O)[C@@H]1CC(Cl)=NO1 [acivicin, (alpha-S,5S)-alpha-amino-3-chloro-2-isoxazoline-5-acetic acid] | 0.32 µg/mL (≈ 1.79 µM) | 0.32 µg/mL (≈ 1.79 µM) | – | >312 | >312 | – | – | markedly active | > 100 µg/mL | ≥ 100 µg/mL | – | ≥ 100 µg/mL | 2.5 µg/mL (≈ 14 µM) | 1.3 µg/mL (≈ 7.28 µM) | >4 | >7.7 | weakly active to active | 50 µg/mL (≈ 280 µM) | 55 µg/mL (≈ 308 µM) | >2 | SI (Safety Index = IC50/EC50) ([6]; based on EC50 by Neutral Red): 1.8; antiviral activity rating in words [6]: not active
3 | NC(=O)c1ncn([C@@H]2O[C@H](CO)[C@@H](O)[C@H]2O)n1 [Positive control drug, ribavarin] | – | 2 µg/mL (≈ 8.19 µM) | 1.8 µg/mL (≈ 7.37 µM) | – | >50 and >83 | >56 | >29^b | – | > 100 µg/mL | > 100 µg/mL | > 100 µg/mL | > 100 µg/mL | 5.5 µg/mL (≈ 22.5 µM) | 5.5 µg/mL (≈ 22.5 µM) | – | – | – | – | 4.3 µg/mL (≈ 17.6 µM) | – | EC90 ([3]; Influenza B virus, confirmatory test, visual method, MDCK cells, influenza B Hong Kong/330/02, read-out: EC90): 3.5 µg/mL (≈ 14.3 µM); EC50 ([3]; Neutral Red assay, MDCK cells, influenza B Hong Kong/330/02, initial test): 1.2 µg/mL (≈ 4.91 µM); SI (Safety Index = IC50/EC50) [5]: >18; EC50 ([6]; Neutral Red assay): 5.5 µg/mL (≈ 22.5 µM)
